The values below come from article PMC13267291, “In vivo functional profiling and structural characterization of the human GLP1R A316T variant” (Science Advances, 2026).

Experiment [1] has as its system SNAP/FLAG-hGLP1R^A316T versus ^WT. Put plainly: GLP-1R recruitment to detergent-resistant membrane fractions (lipid rafts). The following applies: 100 nM, 2 min; fold to vehicle; n = 5; Fig. 8G. Format: cell-based, human. The method, then:
signal serially monitored for 30 min. The TR-FRET ratio, i.e. the ratio of fluorescence intensities at 590 and 490 nm, was considered indicative of the proximity of the GLP-1R ECD to the plasma membrane.
Baseline-normalised AUCs were used to generate concentration– response curves fitted using GraphPad Prism 10.1.2, with logEC50 and Emax calculated for each replicate dose response curve.
Real- time c ytosolic c alcium a ssay hGLP1R-/- mouse islets were transduced with pAV- SNAP/FLAG-hGLP1RWT or A316T adenoviruses for 24 hours, labelled with the Ca2+ dye Cal-520, AM (4.5 μM; Stratech) diluted in KBRH buffer containing 6 mM glucose for 1 hour and encased in Matrigel onto […] glass bottom MatTek dishes. […] Raw fluorescence intensity traces from islet ROIs were extracted using Fiji. Responses were plotted relative to the average fluorescence intensity during the 6 mM glucose baseline period, before agonist addition, and AUCs separately calculated for the GLP- 1RA + 6 mM and 11 mM glucose […]
were resuspended in 200 μL ice-cold PBS supplemented with cOmplete EDTA-free protease inhibitor cocktail (Roche) and phosphatase inhibitor cocktail 2 and 1% Triton X-100, followed by rotating incubation for 30 min at 4°C. […] GLP-1R enrichment into DRMs was calculated from SNAP over flotillin band intensity levels under the different conditions […]

The test system of experiment [2] is human GLP-1R A316T versus WT. Nature of the experiment: Insulin secretion assay in mouse islets. The note with it: chow-fed mouse islets; 100 nM; 16 hours; n = 4; Fig. 5H. Format: cell-based. The protocol: Purified mouse islets used for insulin secretion assays were treated in 24-well nonadherent plates. Eight islets were used per replicate with three technical replicates per condition. For acute studies, islets were preincubated for 1 hour in KRBH buffer containing 0.1% (w/v) bovine serum albumin (BSA) (10775835001, Roche) and 3 mM glucose before incubation with 11 mM glucose ± 100 nM GLP-1RAs or the GLP-1R antagonist exendin-9 in KRBH buffer in a shaking 37°C water bath (80 rpm) for 1 hour. For overnight studies, preincubation was carried out in RPMI 1640 medium containing FBS, P/S, and 3 mM glucose, followed by treatment with medium supplemented with 11 mM glucose ± GLP-1RAs for 16 hours. Supernatants containing secreted insulin were collected, centrifuged at 1000 rpm for 1 min, and transferred to fresh tubes. For total insulin content, islets were lysed using acidic ethanol (75% ethanol, 1.5 mM HCl). Lysates were sonicated 3× 10 s each in a water bath and centrifuged at 10,000g for 10 min, and supernatants were collected. For human islets, the same experiment was performed with islets previously transduced with pAV-SNAP/FLAG-hGLP1R^WT or ^A316T adenoviruses (generated by VectorBuilder) at a multiplicity of infection of 1, 24 hours before the start of experiments. Insulin secretion assays with the human EndoC-βH3 cell line were performed following 3 weeks of treatment with 4-hydroxytamoxifen as above, followed by transduction with pAV-SNAP/FLAG-hGLP1R^WT or ^A316T adenoviruses, with insulin secretion assessed as previously described ([54]), with the following modifications: After preincubation with 0.5 mM glucose KRBH buffer, cells were stimulated with 15 mM glucose ± exendin-4 for 60 min. Total and secreted insulin samples from islets and cells were stored at −20°C until quantification using an Insulin Ultra-Sensitive HTRF kit (#62IN2PEG, Revvity) in a PHERAstar plate reader (BMG Labtech), according to the manufacturer’s instructions.

Regarding GLP-1(7-36)NH2, the “Lipid raft segregation/localization in response to agonist, A316T versus WT” value in experiment [1] is “no changes”. Turning to exendin-F1, in experiment [2], the “Agonist-mediated increase in glucose-stimulated insulin secretion (fold over 11 mM glucose) following overnight exposure, A316T/A316T versus +/+ islets” value is recorded as “no significantly detrimental effect”. Turning to exendin-4, the “Agonist-mediated increase in glucose-stimulated insulin secretion (fold over 11 mM glucose) following overnight exposure, A316T/A316T versus +/+ islets” value in experiment [2] is on record as “complete loss of the potentiating effect”. Further, the “Lipid raft segregation/localization in response to agonist, A316T versus WT” value in experiment [1] is “significantly reduced”.
